Test results: patent publication US20190352358A1, “COMPOUNDS, COMPOSITIONS AND USES THEREOF FOR IMPROVEMENT OF BONE DISORDERS” (ALIZE PHARMA III SAS, priority 2017, published 2019)
Residues, ends and D or L forms follow the SMILES beside them. No end group written: not given here. *: point of attachment. Arachidoyl = CCCCCCCCCCCCCCCCCCCC(=O)*; Stearoyl = CCCCCCCCCCCCCCCCCC(=O)*; Palmitoyl = CCCCCCCCCCCCCCCC(=O)*

Key:
[1] = system: MC-3T3 E1 clone 4 (CL4) osteoblast cells; experiment: Osteocalcin expression during in vitro osteoblast differentiation, acylated and cyclic analogs (Example 7); assay type: cell-based; conditions: Table 18; test peptide 1 μg/L; 18-21 day interval
Experimental: Each acylated peptide was tested in a biologic assay measuring its ability to stimulate differentiation of osteoblast cells over a 18-21 day interval as assessed by the stimulation of osteocalcin protein synthesis. MC-3T3 E1 clone 4 (CL4) osteoblast cells were obtained from ATCC (Manassas, Va., USA). Cells were cultured in α-MEM containing 10% fetal bovine serum (FBS; Thermo Fisher Scientific, Pittsburgh, Pa., USA). After confluency, culture medium was changed to differentiation medium (DM), which contained 10% FBS plus 50 μg/mL ascorbic acid and 4 mM β-glycerol phosphate, with or without a test peptide (1 μg/L). Fresh DM, with or without test peptide, was applied every 72 hours. The cell monolayers were lysed in a modified radioimmunoprecipitation assay (RIPA) buffer. Total cellular protein in the lysates was determined using BCA (Thermo Fisher Scientific, Rockford, Ill., USA). Cell proteins are separated on SDS-PAGE gel and transferred on PVDF membrane for analysis. Osteocalcin detection was performed using anti-osteocalcin antibody at 1:200 dilution (Santa Cruz Biotechnology, Inc, Santa Cruz, Calif., USA) and visualized using enhanced chemiluminescence (Thermo Fisher Scientific, Rockford, Ill., USA).
In a separate experiment, the effect of cyclization was examined on of the HBD1 (3-11) peptide. The cyclic HBD1 (3-11) was synthetized and tested on the in vitro osteoblast differentiation assay.

[2] = Stability of HBD1 fragments in human plasma; assay type: in vitro ADME; conditions: for remaining at 24 h, 1 μg/mL / remaining at 48 h, 1 μg/mL: human, human K2EDTA plasma; for remaining at 24 h, 1 μg/mL / remaining at 48 h, 1 μg/mL / Remaining parent peptide in human plasma 24 hours post spike / Remaining parent peptide in human plasma 48 hours post spike: spiked at 1 μg/mL, 37° C.; for remaining at 24 h, 1 μg/mL: read-out: Remaining parent peptide in human plasma 24 hours post spike; for remaining at 48 h, 1 μg/mL: read-out: Remaining parent peptide in human plasma 48 hours post spike; for stability in human plasma (in words): 24 and 48 hours incubation at 37° C.
Experimental: The peptides were spiked at 1 μg/mL (peptide backbone) into pre-warmed human K2EDTA plasma (at 37° C.) and incubated for up to 48 hours. Aliquots of plasma were extracted at specific time points (0, 24 and 48 hours post spike). Extraction was performed with acetonitrile:water (75:25, v/v) for HBD1 (1-13), HBD1 (1-13) with palmitic acid at the N-terminus (C16:0), HBD1 (3-11) with palmitic acid at the N-terminus (C16:0)) and HBD1 (3-11) with stearic acid at the N-terminus (C18:0) or with acetonitrile:water:formic acid (75:25:0.1, v/v/v) for HBD1 (3-11) and cyclic HBD1 (3-11). The peptides were analyzed using developed LC (C18 reverse phase column)—positive ion electrospray MS/MS methods specific to each peptide. The peak area at each time point was expressed as a percentage of the value obtained for the t=0 minutes time point.

[3] = Pharmacokinetics in male Sprague Dawley rats after intravenous and subcutaneous injection (Example 10); assay type: in vivo; conditions: 1 μmol net peptide/kg, rat; for exposure after administration by either dose route (in words): iv and sc
Experimental: The peptides were reconstituted in saline (0.9% NaCl). Three male Sprague Dawley rats were used per group. Intravenous doses were administered into a lateral tail vein at the dose of 1 μmol net peptide/kg. Subcutaneous doses were administered into the right flank of each animal, also at the dose of 1 μmol net peptide/kg. Following dosing, serial whole blood samples (ca. 0.25 mL) were collected from a lateral tail vein into K2EDTA treated containers. Following each blood sample collection, samples were placed into a cooling block at 4° C. Samples were collected prior to dosing then at 2, 5, 15 and 30 minutes then 1, 2, 4, 6 and 8 and 24 hours post dose for intravenous injection and at 15 and 30 minutes then 1, 2, 4, 6, 8 and 24 hours post dose for subcutaneous injection.
Blood samples were centrifuged at 10000×g for 2 minutes at 4° C. and resultant plasma aspirated off into clean fully, labelled tubes. Plasma samples were snap frozen following aspiration then stored at −80° C. Peptides were extracted and analyzed as described in Example 9. The limits of quantification of these methods were 0.001 nmol/mL for cyclic HBD1 (3-11) and HBD1 (3-11) and 0.003 nmol/mL for HBD1 (1-13). All values below these limits of quantification were considered as zero.

[4] = Pharmacokinetics of acylated analogs in male Sprague Dawley rats after subcutaneous injection (Example 11); assay type: in vivo; parameters: AUC(0-t): concentration or dose not given beside the values; conditions: sc, rat; for AUC(0-t) / Cmax / Tmax: male, Sprague Dawley, plasma; for AUC(0-t) / Cmax / Tmax / Tlast (last time point with detectable peptide): Table 24
Experimental: The peptides were reconstituted in saline (0.9% NaCl). Three male Sprague Dawley rats (approximately 6 weeks of age) were used per group. Subcutaneous doses were administered into the right flank of each animal […]. Following dosing, serial whole blood samples (ca. 0.3 mL) were collected from retro-orbital sinus into K2EDTA treated containers. Following each blood sample collection, samples were placed into a cooling block at 4° C. Samples were collected prior to dosing then at 15 and 30 minutes then 1, 2, 4, 6, 8 and 24 hours post dose for subcutaneous injection. Blood samples were centrifuged at 3500×rpm for 10 minutes at 4° C. and resultant plasma aspirated off into clean fully, labelled tubes. Plasma samples were snap frozen following aspiration then stored at −80° C. The peptides were extracted with acetonitrile:water (75:25, v/v) and analyzed using developed LC-MS/MS methods as described in Example 9. The limits of detection of these methods are 0.003 nmol/mL for HBD1 (1-13) with palmitic acid at the N-terminus (C16:0), 0.0008 nmol/mL for HBD1 (3-11) with palmitic acid at the N-terminus (C16:0), 0.0070 nmol/mL for HBD1 (3-11) with stearic acid at the N-terminus (C18:0), and 0.0015 nmol/mL for HBD1 (3-11) with myristic acid at the N-terminus (C14:0), HBD1 (3-11) with arachidic acid at the N-terminus (C20:0), HBD1 (3-11) with palmitic diacid at the N-terminus (C16:0-diacid), HBD1 (3-11) with palmitic acid at the C-terminus (C16:0). All values below these limits of quantification were considered as zero.

[5] = male, Sprague Dawley, plasma, iv
[6] = male, Sprague Dawley, plasma, sc

Molecule: CCCCCCCCCCCCCCCCCCCC(=O)N[C@@H](Cc1c[nH]cn1)C(=O)N[C@@H](Cc1c[nH]cn1)C(=O)N[C@@H](CC(C)C)C(=O)NCC(=O)N[C@@H](CC(C)C)C(=O)N[C@@H](CCC(=O)O)C(=O)N[C@@H](CCC(=O)O)C(=O)N1CCC[C@H]1C(=O)N[C@@H](CCCCN)C(=O)N[C@@H](CCCCN)C(=O)O [compound 70] (Arachidoyl-HHLGLEEPKK-OH; C-terminus assumed)
- Fold increase vs DM ± SE [1]: 2.11 ± 0.11 fold

Molecule: KHHLGLEEPKKLR [compound 1]
- remaining at 24 h, 1 μg/mL [2]: 29%
- remaining at 48 h, 1 μg/mL [2]: 18%

Molecule: CCCCCCCCCCCCCCCC(=O)N[C@@H](Cc1c[nH]cn1)C(=O)N[C@@H](CC(C)C)C(=O)NCC(=O)N[C@@H](CC(C)C)C(=O)N[C@@H](CCC(=O)O)C(=O)N[C@@H](CCC(=O)O)C(=O)N1CCC[C@H]1C(=O)N[C@@H](CCCCN)C(=O)N[C@@H](CCCCN)C(=O)O [SEQ ID NO: 72, C16:0-HLGLEEPKK] (Palmitoyl-HLGLEEPKK-OH; C-terminus assumed)
- bioavailability ([3]; male, Sprague Dawley, plasma, subcutaneous, sc vs iv, read-out: F (bioavailability)): 35%
- AUC(0-t) [3, 5]: 4.46 µM·h
- Cmax [3, 5]: 7890 nM
- Tmax [3, 5]: 0.033 h
- AUC(0-t) [3, 6]: 1.57 µM·h
- Cmax [3, 6]: 410 nM
- Tmax [3, 6]: 1 h

Molecule: CCCCCCCCCCCCCCCCCC(=O)N[C@@H](Cc1c[nH]cn1)C(=O)N[C@@H](Cc1c[nH]cn1)C(=O)N[C@@H](CC(C)C)C(=O)NCC(=O)N[C@@H](CC(C)C)C(=O)N[C@@H](CCC(=O)O)C(=O)N[C@@H](CCC(=O)O)C(=O)N1CCC[C@H]1C(=O)N[C@@H](CCCCN)C(=O)N[C@@H](CCCCN)C(=O)O [compound 69] (Stearoyl-HHLGLEEPKK-OH; C-terminus assumed)
- Fold increase vs DM ± SE [1]: 2.48 ± 0.27 fold

Molecule: HLGLEEPKK [compound 10]
- remaining at 24 h, 1 μg/mL [2]: 92%
- remaining at 48 h, 1 μg/mL [2]: 87%

Molecule: CCCCCCCCCCCCCCCCCCCC(=O)N[C@@H](Cc1c[nH]cn1)C(=O)N[C@@H](CC(C)C)C(=O)NCC(=O)N[C@@H](CC(C)C)C(=O)N[C@@H](CCC(=O)O)C(=O)N[C@@H](CCC(=O)O)C(=O)N1CCC[C@H]1C(=O)N[C@@H](CCCCN)C(=O)N[C@@H](CCCCN)C(=O)O [SEQ ID NO: 74, C20:0-HLGLEEPKK] (Arachidoyl-HLGLEEPKK-OH; C-terminus assumed)
- peptide exposure compared among acylated peptides (in words) [4]: lower exposure than HBD1 (3-11) with stearic acid at the N-terminus (C18:0)

Molecule: CCCCCCCCCCCCCCCC(=O)N[C@@H](CCCCN)C(=O)N[C@@H](Cc1c[nH]cn1)C(=O)N[C@@H](Cc1c[nH]cn1)C(=O)N[C@@H](CC(C)C)C(=O)NCC(=O)N[C@@H](CC(C)C)C(=O)N[C@@H](CCC(=O)O)C(=O)N[C@@H](CCC(=O)O)C(=O)N1CCC[C@H]1C(=O)N[C@@H](CCCCN)C(=O)N[C@@H](CCCCN)C(=O)N[C@@H](CC(C)C)C(=O)N[C@@H](CCCNC(=N)N)C(=O)O [compound 78] (Palmitoyl-KHHLGLEEPKKLR-OH)
- AUC(0-t) [4]: 0.01 µM·h
- Cmax [4]: 10 nM
- Tmax [4]: 6 h
- Tlast (last time point with detectable peptide) [4]: 8 h
- remaining at 24 h, 1 μg/mL [2]: 58%
- remaining at 48 h, 1 μg/mL [2]: 52%

Molecule: KHHLGLEEPKKLR [SEQ ID NO: 1, KHHLGLEEPKKLR, reference compound]
- exposure after administration by either dose route (in words) [3]: no quantifiable exposure
- stability in human plasma (in words) [2]: markedly degraded
- Remaining parent peptide in human plasma 24 hours post spike [2]: 29%
- Remaining parent peptide in human plasma 48 hours post spike [2]: 18%

Molecule: CC(C)C[C@@H]1NC(=O)CNC(=O)[C@H](CC(C)C)NC(=O)[C@H](Cc2c[nH]cn2)NC(=O)[C@H](CCCCN)NC(=O)[C@H](CCCCN)NC(=O)[C@@H]2CCCN2C(=O)[C@H](CCC(=O)O)NC(=O)[C@H](CCC(=O)O)NC1=O [compound 77] (cyclo(EEPKKHLGL))
- stability in human plasma (in words) [2]: similar
- remaining at 24 h, 1 μg/mL [2]: 98%
- remaining at 48 h, 1 μg/mL [2]: 95%

Molecule: HLGLEEPKK [SEQ ID NO: 10, HLGLEEPKK]
- exposure after administration by either dose route (in words) [3]: no quantifiable exposure
- stability in human plasma (in words) [2]: very stable
- Remaining parent peptide in human plasma 24 hours post spike [2]: 92%
- Remaining parent peptide in human plasma 48 hours post spike [2]: 87%

Molecule: CCCCCCCCCCCCCCCC(=O)N[C@@H](Cc1c[nH]cn1)C(=O)N[C@@H](CC(C)C)C(=O)NCC(=O)N[C@@H](CC(C)C)C(=O)N[C@@H](CCC(=O)O)C(=O)N[C@@H](CCC(=O)O)C(=O)N1CCC[C@H]1C(=O)N[C@@H](CCCCN)C(=O)N[C@@H](CCCCN)C(=O)O [compound 72] (Palmitoyl-HLGLEEPKK-OH)
- AUC(0-t) [4]: 1.34 µM·h
- Cmax [4]: 350 nM
- Tmax [4]: 1 h
- Tlast (last time point with detectable peptide) [4]: 8 h
- stability in human plasma (in words) [2]: similar
- remaining at 24 h, 1 μg/mL [2]: 94%
- remaining at 48 h, 1 μg/mL [2]: 87%

Molecule: CCCCCCCCCCCCCCCC(=O)N[C@@H](Cc1c[nH]cn1)C(=O)N[C@@H](Cc1c[nH]cn1)C(=O)N[C@@H](CC(C)C)C(=O)NCC(=O)N[C@@H](CC(C)C)C(=O)N[C@@H](CCC(=O)O)C(=O)N[C@@H](CCC(=O)O)C(=O)N1CCC[C@H]1C(=O)N[C@@H](CCCCN)C(=O)N[C@@H](CCCCN)C(=O)O [compound 68] (Palmitoyl-HHLGLEEPKK-OH; C-terminus assumed)
- Fold increase vs DM ± SE [1]: 2.52 ± 0.52 fold

Molecule: CCCCCCCCCCCCCCCC(=O)N[C@@H](CCCCN)C(=O)N[C@@H](Cc1c[nH]cn1)C(=O)N[C@@H](Cc1c[nH]cn1)C(=O)N[C@@H](CC(C)C)C(=O)NCC(=O)N[C@@H](CC(C)C)C(=O)N[C@@H](CCC(=O)O)C(=O)N[C@@H](CCC(=O)O)C(=O)N1CCC[C@H]1C(=O)N[C@@H](CCCCN)C(=O)N[C@@H](CCCCN)C(=O)N[C@@H](CC(C)C)C(=O)N[C@@H](CCCNC(=N)N)C(=O)O [SEQ ID NO: 78, C16:0-KHHLGLEEPKKLR] (Palmitoyl-KHHLGLEEPKKLR-OH; C-terminus assumed)
- Remaining parent peptide in human plasma 48 hours post spike [2]: 52%
